Legend:
KG-1 = experiment: Cellular Proliferation Assay (Cell Counting Kit-8), KG-1; assay type: cell-based; conditions: Homo sapiens, KG1 cells, 72 hours
Procedure: (§1) Cellular Proliferation Assay
(§2) • KG-1 (ATCC Accession No. CCL-246), • SNU-16 (ATCC Accession No. CRL-5974), • RT-112 (ECACC Accession No. 85061106)
(§3) • FGFR related cancer cell proliferation is measured in 96-well plates using Cell Counting Kit-8 (Dojindo CK04-13). • Seed 30000 cells/well of KG1, 5000 cells/well of SNU16, and 1000 cells/well of RT112 in a volume of 100 μL/well in growth media. • After 24 hours, dilute the compound to 10, 3.3, 1.1, 0.37, 0.12, 0.04, 0.013, 0.004 μM, keeping the DMSO concentration at 5%. • Add 10 μL of 8-point compound series to the wells of culturing cells. • Incubate at 37° C. and 5% CO2 for 72 hours • Add 10 μL/well of CCkit8 and incubate at 37° C. and 5% CO2 for an hour • Detect the optical density of each well at 450 nm on Labsystems Multiskan K3.
(§4) • ODcompound well represents the optical density of cells treated with compound. • ODcell well represents the optical density of cells without compounds treatment. (only 0.5% DMSO) • ODcontrol well represents the optical density of culture media background
(§5) The concentration of compound providing 50% of proliferation inhibition was calculated using Excel Fit.

Recombinant human FGFR1 = Recombinant human FGFR1 (Homo sapiens, UniProt P11362); experiment: Transcreener Kinase Assay of FGFR1; assay type: biochemical; conditions: read-out: FGFR1 (FP) IC50
Sequence of Recombinant human FGFR1 (P11362 22-822): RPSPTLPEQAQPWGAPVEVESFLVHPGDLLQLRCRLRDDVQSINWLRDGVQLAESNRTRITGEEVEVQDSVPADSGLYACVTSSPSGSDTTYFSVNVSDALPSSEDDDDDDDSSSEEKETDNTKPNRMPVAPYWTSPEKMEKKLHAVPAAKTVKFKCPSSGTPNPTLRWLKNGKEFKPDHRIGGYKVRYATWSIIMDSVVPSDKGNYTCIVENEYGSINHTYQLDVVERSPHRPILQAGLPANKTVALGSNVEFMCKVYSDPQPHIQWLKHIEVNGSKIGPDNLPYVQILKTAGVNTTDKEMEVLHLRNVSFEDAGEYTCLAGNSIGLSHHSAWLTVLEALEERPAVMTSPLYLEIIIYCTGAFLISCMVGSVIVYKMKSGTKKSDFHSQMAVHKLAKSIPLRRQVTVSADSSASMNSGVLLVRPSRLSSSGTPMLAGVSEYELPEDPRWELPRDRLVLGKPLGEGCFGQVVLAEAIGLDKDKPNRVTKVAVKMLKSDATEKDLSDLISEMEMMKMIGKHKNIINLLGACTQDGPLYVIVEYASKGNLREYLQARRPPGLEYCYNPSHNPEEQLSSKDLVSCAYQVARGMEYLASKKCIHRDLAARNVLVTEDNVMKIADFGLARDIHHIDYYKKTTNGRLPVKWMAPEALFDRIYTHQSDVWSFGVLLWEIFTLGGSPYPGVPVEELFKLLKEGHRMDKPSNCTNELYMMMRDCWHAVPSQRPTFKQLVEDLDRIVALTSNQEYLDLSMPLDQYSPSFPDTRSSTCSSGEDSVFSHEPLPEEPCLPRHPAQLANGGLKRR

FGFR3 kinase = FGFR3 kinase (Homo sapiens, UniProt P22607); experiment: Z-Lyte Kinase Assay of FGFR3; assay type: biochemical
Sequence of FGFR3 kinase (P22607 23-806): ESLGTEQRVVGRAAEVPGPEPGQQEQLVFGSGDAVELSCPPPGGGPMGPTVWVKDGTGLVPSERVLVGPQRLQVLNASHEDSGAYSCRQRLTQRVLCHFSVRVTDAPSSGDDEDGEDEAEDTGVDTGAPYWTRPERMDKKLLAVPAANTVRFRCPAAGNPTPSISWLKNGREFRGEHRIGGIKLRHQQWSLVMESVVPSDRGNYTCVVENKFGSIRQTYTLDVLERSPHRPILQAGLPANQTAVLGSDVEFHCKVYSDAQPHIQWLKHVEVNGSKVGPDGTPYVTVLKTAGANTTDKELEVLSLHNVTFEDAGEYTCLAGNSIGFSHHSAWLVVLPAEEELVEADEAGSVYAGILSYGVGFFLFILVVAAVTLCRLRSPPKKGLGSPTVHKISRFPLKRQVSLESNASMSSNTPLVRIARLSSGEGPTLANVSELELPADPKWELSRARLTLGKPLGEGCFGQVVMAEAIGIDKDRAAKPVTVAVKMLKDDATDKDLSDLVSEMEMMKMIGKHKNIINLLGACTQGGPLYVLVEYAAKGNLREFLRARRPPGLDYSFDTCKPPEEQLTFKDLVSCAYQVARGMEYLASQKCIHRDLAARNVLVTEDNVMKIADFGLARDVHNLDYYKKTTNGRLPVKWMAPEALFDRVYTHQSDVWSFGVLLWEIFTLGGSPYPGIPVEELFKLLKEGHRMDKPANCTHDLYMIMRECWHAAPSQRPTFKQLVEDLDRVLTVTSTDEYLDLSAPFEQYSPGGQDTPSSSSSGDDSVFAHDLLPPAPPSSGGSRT
Outline: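 FRET peptide-cleavage format: 1 h kinase reaction at RT (25-30[…]), then 1 h protease development, then stop and dual-emission read (Ex400, Em445/520 nm). Working solutions: kinase 0.7 μg/ml, Tyr 4 peptide 4 μM, ATP 300 uM in 1.33× buffer; eight compound concentrations from 1 μM, 2% DMSO final.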

Recombinant human FGFR2 = Recombinant human FGFR2 (Homo sapiens, UniProt P21802); experiment: Transcreener Kinase Assay of FGFR2; assay type: biochemical; conditions: read-out: FGFR2 (FP) IC50
Sequence of Recombinant human FGFR2 (P21802 22-821): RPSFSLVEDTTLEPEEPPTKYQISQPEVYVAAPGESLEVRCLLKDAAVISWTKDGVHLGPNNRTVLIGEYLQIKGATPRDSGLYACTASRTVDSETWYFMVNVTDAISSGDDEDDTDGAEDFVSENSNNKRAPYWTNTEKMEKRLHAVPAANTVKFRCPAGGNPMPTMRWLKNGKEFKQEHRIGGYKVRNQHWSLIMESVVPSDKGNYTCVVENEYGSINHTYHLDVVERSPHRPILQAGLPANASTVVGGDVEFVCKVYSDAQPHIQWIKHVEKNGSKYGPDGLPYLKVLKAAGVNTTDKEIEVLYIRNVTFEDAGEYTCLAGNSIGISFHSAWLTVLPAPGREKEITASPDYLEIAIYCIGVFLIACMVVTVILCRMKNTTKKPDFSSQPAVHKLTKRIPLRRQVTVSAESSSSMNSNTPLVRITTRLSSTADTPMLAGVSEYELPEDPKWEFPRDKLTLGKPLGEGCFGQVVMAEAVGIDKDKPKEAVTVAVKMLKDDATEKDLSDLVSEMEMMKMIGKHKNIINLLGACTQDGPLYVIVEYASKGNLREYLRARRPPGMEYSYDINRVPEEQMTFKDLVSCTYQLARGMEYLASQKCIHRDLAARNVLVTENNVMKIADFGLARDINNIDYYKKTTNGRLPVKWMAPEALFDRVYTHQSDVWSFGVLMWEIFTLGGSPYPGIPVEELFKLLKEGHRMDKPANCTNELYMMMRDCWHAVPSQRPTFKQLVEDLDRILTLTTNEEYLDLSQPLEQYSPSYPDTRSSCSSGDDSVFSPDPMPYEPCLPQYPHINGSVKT

RT-112 = experiment: Cellular Proliferation Assay (Cell Counting Kit-8), RT-112; assay type: cell-based; conditions: Homo sapiens, RT-112 cells, 72 hours
Procedure: as §1, §2, §3, §4, §5

SNU-16 = experiment: Cellular Proliferation Assay (Cell Counting Kit-8), SNU-16; assay type: cell-based; conditions: Homo sapiens, SNU-16 cells, 72 hours
Procedure: as §1, §2, §3, §4, §5

IC50 (Recombinant human FGFR1) [µM] | IC50 (FGFR3 kinase) [µM] | IC50 (Recombinant human FGFR2) [µM] | IC50 (SNU-16) [µM] | SMILES | IC50 (KG-1) [µM] | IC50 (RT-112) [µM]
0.071 | 0.024 | 0.008 | 0.034 | CNC(=O)c1cc(CCc2cnc(Nc3cnn(-c4ccc(C)nc4)c3)nc2)c(F)c(OC)c1 [Compound 134] | 0.033 | 0.084
0.008 | 0.008 | 0.006 | 0.075 | CNC(=O)c1cc(CCc2cnc(Nc3cnn([C@@H]4CCCNC4)c3)nc2)c(F)c(OC)c1 [Compound 159, (R)-4-fluoro-3-methoxy-N-methyl-5-(2-(2-(1-(piperidin-3-yl)-1H-pyrazol-4-ylamino)pyrimidin-5-yl)ethyl)benzamide] | 0.29 | 0.759
0.036 | 0.028 | 0.025 | 0.037 | CCNC(=O)c1cc(COc2cnc(Nc3ccc(N4C[C@@H](C)N[C@@H](C)C4)cc3)nc2)c(F)c(OC)c1 [Compound 205] | 0.068 | 0.097
0.034 | 0.033 | 0.012 | 0.033 | CNC(=O)c1cc(CCc2cnc(Nc3ccc4ncnn4c3)nc2)c(F)c(OC)c1 [Compound 95] | 0.044 | 0.072
0.012 | 0.007 | 0.009 | 0.016 | CCN(CC)CCn1cc(Nc2ncc(OCc3cc(C(=O)NC)cc(OC)c3Cl)cn2)cn1 [Compound 190] | 0.037 | 0.017
0.015 | 0.015 | 0.014 | 0.018 | CNC(=O)c1cc(CCc2cnc(Nc3cnn([C@@H]4CCN(C)C4)c3)nc2)c(F)c(OC)c1 [Compound 169] | 0.017 | 0.539
0.006 | 0.009 | 0.005 | 0.014 | CNC(=O)c1cc(CCc2cnc(Nc3ccc(N4CCNCC4)cc3)nc2)c(Cl)c(OC)c1 [Compound 196] | 0.051 | 0.02
0.023 | 0.013 | 0.02 | 0.028 | CCN(CC)CCn1cc(Nc2ncc(OCc3cc(C(=O)NC)cc(OC)c3F)cn2)cn1 [Compound 189] | 0.038 | 0.023
0.015 | 0.03 | 0.008 | 0.023 | CNC(=O)c1cc(CCc2cnc(Nc3cnn(C)c3)nc2)c(F)c(OC)c1 [Compound 25] | 0.039 | 0.218
0.028 | 0.013 | 0.005 | 0.026 | CNC(=O)c1cc(CCc2cnc(Nc3cnn(C4COC4)c3)nc2)c(F)c(OC)c1 [Compound 117] | 0.031 | 0.188
0.007 | 0.007 | 0.006 | 0.008 | CNC(=O)c1cc(COc2cnc(Nc3ccc(N4C[C@@H](C)N[C@@H](C)C4)c(C)c3)nc2)c(Cl)c(OC)c1 [Compound 209] | 0.013 | 0.016
0.011 | 0.019 | 0.006 | 0.027 | CNC(=O)c1cc(CCc2cnc(Nc3cnn(C4CC4)c3)nc2)c(Cl)c(OC)c1 [Compound 119] | 0.022 | 0.124
0.042 | 0.287 | 0.023 | 0.236 | CNC(=O)c1cc(CCc2cnc(Nc3ccc4c(c3)OCO4)nc2)c(F)c(OC)c1 [Compound 31] | 0.178 | 0.491
0.033 | 0.046 | 0.013 | 0.058 | CNC(=O)c1cc(CCc2cnc(Nc3ccc4nc(C)oc4c3)nc2)c(F)c(OC)c1 [Compound 34] | 0.132 | 0.308
0.006 | 0.006 | 0.006 | 0.014 | CNC(=O)c1cc(CCc2cnc(Nc3ccc(N4C[C@@H](C)N[C@@H](C)C4)cc3)nc2)c(Cl)c(OC)c1 [Compound 79, 4-chloro-3-(2-(2-((4-((3S,5R)-3,5-dimethylpiperazin-1-yl)phenyl)amino)pyrimidin-5-yl)ethyl)-5-methoxy-N-methylbenzamide] | 0.013 | 0.034
0.005 | 0.004 | 0.003 | 0.002 | CONC(=O)c1cc(COc2cnc(Nc3cnn(C)c3)nc2)c(Cl)c(OC)c1 [Compound 185] | 0.002 | 0.005
0.022 | 0.017 | 0.007 | 0.019 | CNC(=O)c1cc(CCc2cnc(Nc3cnn(C[C@@H](C)O)c3)nc2)c(F)c(OC)c1 [Compound 33] | 0.047 | 0.135
0.015 | 0.006 | 0.006 | 0.033 | CNC(=O)c1cc(CCc2cnc(Nc3cnn(C[C@@H](C)O)c3)nc2)c(Cl)c(OC)c1 [Compound 150] | 0.031 | 0.062
0.006 | 0.006 | 0.003 | 0.01 | CONC(=O)c1cc(CCc2cnc(Nc3ccc(N4C[C@@H](C)N[C@@H](C)C4)c(F)c3)nc2)cc(OC)c1 [Compound 54] | 0.018 | 0.031
0.017 | 0.017 | 0.01 | 0.031 | CCn1cc(Nc2ncc(/C=C/c3c(F)c(C(=O)NC)cc(OC)c3Cl)cn2)cn1 [Compound 2] | 0.017 | 0.019
0.009 | 0.02 | 0.005 | 0.026 | CONC(=O)c1cc(CCc2cnc(Nc3ccccc3)nc2)cc(OC)c1 [Compound 22] | 0.028 | 0.084
0.01 | 0.009 | 0.005 | 0.017 | CNC(=O)c1cc(CCc2cnc(Nc3ccc(N4C[C@@H](C)N[C@@H](C)C4)c(C)c3)nc2)c(Cl)c(OC)c1 [Compound 208] | 0.06 | 0.021
0.008 | 0.009 | 0.007 | 0.008 | CNC(=O)c1cc(COc2cnc(Nc3ccc(N4C[C@@H](C)N[C@@H](C)C4)nc3)nc2)c(Cl)c(OC)c1 [Compound 197] | 0.026 | 0.025
0.011 | 0.007 | 0.005 | 0.009 | CNC(=O)c1cc(CCc2cnc(Nc3ccc(C(=O)N4CCN(C)CC4)cc3)nc2)c(Cl)c(OC)c1 [Compound 90] | 0.031 | 0.026
0.007 | 0.008 | 0.006 | 0.06 | CNC(=O)c1cc(CCc2cnc(Nc3cnn([C@H]4CCCNC4)c3)nc2)c(F)c(OC)c1 [Compound 163] | 0.201 | 0.584
0.03 | 0.083 | 0.009 | 0.157 | CNC(=O)c1cc(CCc2cnc(Nc3ccc(-n4cccn4)cc3)nc2)c(F)c(OC)c1 [Compound 35] | 0.189 | 0.455

Reference: patent US20160052926A1, “NOVEL PYRIMIDINE AND PYRIDINE COMPOUNDS AND USAGE THEREOF” (HUTCHISON MEDIPHARMA LIMITED, priority 2013, published 2016)
